Earlier results as cited in article PMC3178464 (Bioorganic & medicinal chemistry, 2009).

Test system: ER

## 17α-ethynylestradiol [EE2]
  affinity for ER relative to E2: nearly three-fold higher affinity
